Experimental data published in the supplement of paper PMC10307832.

What was measured:
Test in all cases: relative viability (nuclei count vs DMSO), 5 days (fraction); higher = more cells survive
A549 = tested on: A549
Outline: (§1)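 Medians of duplicate plates are given as relative viability. That measure is the nuclei count in treated wells divided by the count in vehicle wells. Counts were taken on 4× images of lung cancer cell lines in 1536-well plates, 5 days after pin-tool dosing the day after seeding with one drug alone or a fixed anchor-drug dose plus five library-drug doses (not always all listed) in √10 steps.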

NCI-H1993 = tested on: NCI-H1993
Outline: as §1

NCI-H1703 = tested on: NCI-H1703
Outline: as §1

UMC-11 = tested on: UMC-11
Outline: as §1

NCI-H1299 = tested on: NCI-H1299
Outline: as §1

NCI-H596 = tested on: NCI-H596
Outline: as §1

EBC-1 = tested on: EBC-1
Outline: as §1

NCI-H23 = tested on: NCI-H23
Outline: as §1

IA-LM = tested on: IA-LM
Outline: as §1

NCI-H1355 = tested on: NCI-H1355
Outline: as §1

Calu-6 = tested on: Calu-6
Outline: as §1

NCI-H322M = tested on: NCI-H322M
Outline: as §1

LCLC-97TM1 = tested on: LCLC-97TM1
Outline: as §1

In the case of `CC(=O)O[C@@]12CO[C@@H]1C[C@H](O)[C@@]1(C)C(=O)[C@H](O)C3=C(C)[C@@H](OC(=O)[C@H](O)[C@@H](NC(=O)OC(C)(C)C)c4ccccc4)C[C@@](O)([C@@H](OC(=O)c4ccccc4)[C@H]21)C3(C)C` [Docetaxel] + CS(=O)(=O)N1CCN(Cc2cc3nc(-c4cccc5[nH]ncc45)nc(N4CCOCC4)c3s2)CC1 [Pictilisib] (partner 1 µM), the relative viability (A549; first compound 0.0002 µM) is reported as 0.44, the relative viability (A549; first compound 0.000632 µM) is reported as 0.22 and the relative viability (A549; first compound 0.002 µM) is reported as 0.0741. It also gave a relative viability (A549; first compound 0.006325 µM) of 0.0602, a relative viability (A549; first compound 0.02 µM) of 0.035 and a relative viability (NCI-H1993; first compound 0.0002 µM) of 0.746. It also gave a relative viability (NCI-H1993; first compound 0.000632 µM) of 0.706, a relative viability (NCI-H1993; first compound 0.002 µM) of 0.729 and a relative viability (NCI-H1993; first compound 0.006325 µM) of 0.682. The relative viability (NCI-H1993; first compound 0.02 µM) was 0.545, the relative viability (NCI-H1703; first compound 0.0002 µM) was 0.235 and the relative viability (NCI-H1703; first compound 0.000632 µM) was 0.26. For the same compound, the relative viability (NCI-H1703; first compound 0.002 µM) was 0.2, the relative viability (NCI-H1703; first compound 0.006325 µM) was 0.161 and the relative viability (NCI-H1703; first compound 0.02 µM) was 0.136. It also gave a relative viability (UMC-11; first compound 0.0002 µM) of 0.799, a relative viability (UMC-11; first compound 0.000632 µM) of 0.835 and a relative viability (UMC-11; first compound 0.002 µM) of 0.245. It also gave a relative viability (UMC-11; first compound 0.006325 µM) of 0.226, a relative viability (UMC-11; first compound 0.02 µM) of 0.136 and a relative viability (NCI-H1299; first compound 0.0002 µM) of 0.761. The relative viability (NCI-H1299; first compound 0.000632 µM) was 0.579, the relative viability (NCI-H1299; first compound 0.002 µM) was 0.305 and the relative viability (NCI-H1299; first compound 0.006325 µM) was 0.14. The relative viability (NCI-H1299; first compound 0.02 µM) was 0.109, the relative viability (NCI-H596; first compound 0.0002 µM) was 0.405 and the relative viability (NCI-H596; first compound 0.000632 µM) was 0.252. For the same compound, the relative viability (NCI-H596; first compound 0.002 µM) was 0.452, the relative viability (NCI-H596; first compound 0.006325 µM) was 0.297 and the relative viability (NCI-H596; first compound 0.02 µM) was 0.256. The relative viability (EBC-1; first compound 0.0002 µM) was 0.347, the relative viability (EBC-1; first compound 0.000632 µM) was 0.267 and the relative viability (EBC-1; first compound 0.002 µM) was 0.189. It also gave a relative viability (EBC-1; first compound 0.006325 µM) of 0.164, a relative viability (NCI-H23; first compound 0.0002 µM) of 0.499 and a relative viability (NCI-H23; first compound 0.000632 µM) of 0.403. It also gave a relative viability (NCI-H23; first compound 0.002 µM) of 0.248, a relative viability (NCI-H23; first compound 0.006325 µM) of 0.185 and a relative viability (NCI-H23; first compound 0.02 µM) of 0.144. It also gave a relative viability (IA-LM; first compound 0.0002 µM) of 0.183, a relative viability (IA-LM; first compound 0.000632 µM) of 0.11 and a relative viability (IA-LM; first compound 0.002 µM) of 0.0755. The relative viability (IA-LM; first compound 0.006325 µM) was 0.0696, the relative viability (IA-LM; first compound 0.02 µM) was 0.064 and the relative viability (NCI-H1355; first compound 0.0002 µM) was 0.479. It also gave a relative viability (NCI-H1355; first compound 0.000632 µM) of 0.426, a relative viability (NCI-H1355; first compound 0.002 µM) of 0.256 and a relative viability (NCI-H1355; first compound 0.006325 µM) of 0.224. For the same compound, the relative viability (NCI-H1355; first compound 0.02 µM) was 0.179, the relative viability (Calu-6; first compound 0.0002 µM) was 0.937 and the relative viability (Calu-6; first compound 0.000632 µM) was 0.754. The relative viability (Calu-6; first compound 0.006325 µM) was 0.128, the relative viability (Calu-6; first compound 0.02 µM) was 0.0823 and the relative viability (NCI-H322M; first compound 0.0002 µM) was 0.433. The relative viability (NCI-H322M; first compound 0.000632 µM) was 0.493, the relative viability (NCI-H322M; first compound 0.002 µM) was 0.492 and the relative viability (NCI-H322M; first compound 0.006325 µM) was 0.381. For the same compound, the relative viability (NCI-H322M; first compound 0.02 µM) was 0.313, the relative viability (LCLC-97TM1; first compound 0.000632 µM) was 0.206 and the relative viability (LCLC-97TM1; first compound 0.002 µM) was 0.113. The relative viability (LCLC-97TM1; first compound 0.006325 µM) was 0.112 and the relative viability (LCLC-97TM1; first compound 0.02 µM) was 0.102.
Work on `Nc1ccn([C@@H]2O[C@H](CO)[C@@H](O)[C@@H]2O)c(=O)n1` [Cytarabine] + C[C@@H](Oc1cc(-c2cnn(C3CCNCC3)c2)cnc1N)c1c(Cl)ccc(F)c1Cl [Crizotinib] (partner 1 µM) yielded a relative viability (A549; first compound 0.005 µM) of 0.541, a relative viability (A549; first compound 0.01581 µM) of 0.53 and a relative viability (A549; first compound 0.05 µM) of 0.449. It also gave a relative viability (A549; first compound 0.1581 µM) of 0.0819, a relative viability (A549; first compound 0.5 µM) of 0.0747 and a relative viability (NCI-H1993; first compound 0.005 µM) of 0.92. The relative viability (NCI-H1993; first compound 0.01581 µM) was 0.785, the relative viability (NCI-H1993; first compound 0.05 µM) was 0.845 and the relative viability (NCI-H1993; first compound 0.1581 µM) was 0.614. It also gave a relative viability (NCI-H1993; first compound 0.5 µM) of 0.566, a relative viability (NCI-H1703; first compound 0.005 µM) of 0.484 and a relative viability (NCI-H1703; first compound 0.01581 µM) of 0.375. For the same compound, the relative viability (NCI-H1703; first compound 0.05 µM) was 0.299, the relative viability (NCI-H1703; first compound 0.1581 µM) was 0.148 and the relative viability (NCI-H1703; first compound 0.5 µM) was 0.205. It also gave a relative viability (UMC-11; first compound 0.005 µM) of 0.454, a relative viability (UMC-11; first compound 0.01581 µM) of 0.52 and a relative viability (UMC-11; first compound 0.05 µM) of 0.336. It also gave a relative viability (UMC-11; first compound 0.1581 µM) of 0.267, a relative viability (UMC-11; first compound 0.5 µM) of 0.205 and a relative viability (NCI-H1299; first compound 0.005 µM) of 0.956. It also gave a relative viability (NCI-H1299; first compound 0.01581 µM) of 0.99, a relative viability (NCI-H1299; first compound 0.05 µM) of 1.03 and a relative viability (NCI-H1299; first compound 0.1581 µM) of 0.961. It also gave a relative viability (NCI-H1299; first compound 0.5 µM) of 0.943, a relative viability (NCI-H596; first compound 0.005 µM) of 0.889 and a relative viability (NCI-H596; first compound 0.01581 µM) of 0.961. For the same compound, the relative viability (NCI-H596; first compound 0.05 µM) was 0.786, the relative viability (NCI-H596; first compound 0.1581 µM) was 0.614 and the relative viability (NCI-H596; first compound 0.5 µM) was 0.743. The relative viability (EBC-1; first compound 0.01581 µM) was 0.171, the relative viability (EBC-1; first compound 0.05 µM) was 0.178 and the relative viability (EBC-1; first compound 0.1581 µM) was 0.149. It also gave a relative viability (EBC-1; first compound 0.5 µM) of 0.159, a relative viability (NCI-H23; first compound 0.005 µM) of 0.458 and a relative viability (NCI-H23; first compound 0.01581 µM) of 0.369. The relative viability (NCI-H23; first compound 0.05 µM) was 0.311, the relative viability (NCI-H23; first compound 0.1581 µM) was 0.226 and the relative viability (NCI-H23; first compound 0.5 µM) was 0.209. For the same compound, the relative viability (IA-LM; first compound 0.005 µM) was 0.864, the relative viability (IA-LM; first compound 0.01581 µM) was 0.62 and the relative viability (IA-LM; first compound 0.05 µM) was 0.729. It also gave a relative viability (IA-LM; first compound 0.1581 µM) of 0.414, a relative viability (IA-LM; first compound 0.5 µM) of 0.121 and a relative viability (NCI-H1355; first compound 0.005 µM) of 0.998. It also gave a relative viability (NCI-H1355; first compound 0.01581 µM) of 1.03, a relative viability (NCI-H1355; first compound 0.05 µM) of 0.973 and a relative viability (NCI-H1355; first compound 0.1581 µM) of 0.46. The relative viability (NCI-H1355; first compound 0.5 µM) was 0.399, the relative viability (Calu-6; first compound 0.005 µM) was 0.722 and the relative viability (Calu-6; first compound 0.01581 µM) was 0.706. The relative viability (Calu-6; first compound 0.05 µM) was 0.623, the relative viability (Calu-6; first compound 0.1581 µM) was 0.433 and the relative viability (Calu-6; first compound 0.5 µM) was 0.259. For the same compound, the relative viability (NCI-H322M; first compound 0.005 µM) was 0.858, the relative viability (NCI-H322M; first compound 0.01581 µM) was 0.676 and the relative viability (NCI-H322M; first compound 0.05 µM) was 0.534. The relative viability (NCI-H322M; first compound 0.1581 µM) was 0.366, the relative viability (NCI-H322M; first compound 0.5 µM) was 0.318 and the relative viability (LCLC-97TM1; first compound 0.005 µM) was 0.487. For the same compound, the relative viability (LCLC-97TM1; first compound 0.01581 µM) was 0.213, the relative viability (LCLC-97TM1; first compound 0.05 µM) was 0.181 and the relative viability (LCLC-97TM1; first compound 0.1581 µM) was 0.115. The relative viability (LCLC-97TM1; first compound 0.5 µM) was 0.106.
